Results from ChEMBL document CHEMBL1142737, “Organometallic anticancer agents: cellular uptake and cytotoxicity studies on thiol derivatives of the antitumor agent molybdocene dichloride” (J Med Chem, 2005).

How the values were obtained:
[1] = Cytotoxicity against V79 chinese hamster lung cells was determined via MTT assay after 24 hr; type: cell-based, Cricetulus griseus
[2] = Ability to inhibit the growth of human breast line MCF-7
[3] = Cytotoxicity against V79 chinese hamster lung cells was determined via MTT assay after 72 hr; type: cell-based, Cricetulus griseus
[4] = […] lethal dose in CF1 mice bearing fluid Ehrlich Ascites tumor at a dose of 75-100 mg/kg; type: ADME, organism-based; conditions: mouse, in vivo
[5] = Ability to inhibit the growth of ovarian cell line 2008; type: cell-based, Homo sapiens

## MOLYBDOCENE DICHLORIDE
[1]
  IC50: 820 µM
[2]
  IC50: 620 µM
[3]
  IC50: 350 µM
[4]
  LD50: 175 mg/kg
[5]
  IC50: 700 µM
